Measurements as given in patent US9175305B2, “Mutant hydroxyphenylpyruvate dioxygenase polypeptides and methods of use” (Syngenta Participations AG, priority 2009, dated 2015).
Values joined by “and” are separate entries in the source; they are usually repeats but may differ in a detail not shown here. Identical values can stand only once. Like-named read-outs stand apart in the source and are kept apart here.

Experiments:
Test in all cases: biochemical
Format in all cases: binding
HPPD SEQ ID NO:18 = HPPD SEQ ID NO:18 (Avena sativa, UniProt A0ACD5V6K6, DEL109-109/I285T)
Procedure: (§1) On rates (governed by an association rate constant, kon) for the formation of the enzyme: inhibitor complexes, EI and off rates (governed by a dissociation rate constant, koff) were determined by methods known in the art and essentially as described in Hawkes et al. (2001) Proc. Bright. Crop. Prot. Conf. Weeds, 2:563-568 and in PCT Patent App. Pub. No. WO 02/46387).
(§2) For example, on rates were measured by, at zero time, adding ˜60 pmoles HPPD to 50 mM BisTrisPropane buffer at pH7.0 and at 25° C. containing 25 mM Na ascorbate, 4 μg/ml bovine catalase (Sigma, St. Louis, Mo.) and an excess (˜300 pmoles) of ^14C inhibitor in a total assay volume of 425 μl and, at various time points (0-180 s), quenching the radiolabel binding reaction by addition and rapid mixing of 100 μl ‘cold’ 1 mM structure A. Protein samples quenched at different times were then exchanged into 50 mM BisTrisPropane buffer at pH 7.0 containing 0.1M KCl by rapid chromatography down a NAP5 G25 Sephadex column (GE Healthcare Ltd, Buckinghamshire UK) and the amount of ^14C bound to protein fractions quantified in Optiphase scintillant using a Tri-Carb 2900TR scintillation counter (Perkin Elmer, Wellesley, Mass.). The data were fit according to the scheme below in order to derive the value of the apparent second order rate constant, k2, governing the association rate of enzyme and radiolabelled inhibitor. A range of enzyme and inhibitor concentrations were used. […] Further example methods are described in PCT Patent App. Pub. No. WO 02/46387.
(§3) Off rates (k1 in the scheme below) were derived from exchange rate studies where either the test inhibitor, I, or its exchange partner, J were radiolabelled and the data fit according to the scheme below. As noted in Hawkes et al. (2001) Proc. Bright. Crop. Prot. Conf.
(§4) After 30 minutes the exchange reaction was initiated with addition of 100 μl 1 mM ‘cold’ structure A with thorough mixing, and, immediately, 150 μl were withdrawn and loaded onto a NAP5 column, the protein exchanged into 50 mM BisTrisPropane buffer at pH 7.0 containing 0.1M KCl by rapid (<2 min) chromatography down a NAP5 G25 Sephadex column (GE Healthcare Ltd, Buckinghamshire UK) and the amount of ^14C bound to protein measured by Optiphase scintillant using a Tri-Carb 2900TR scintillation counter (Perkin Elmer, Wellesley, Mass.). Further aliquots were removed and measured in the same way at various times over minutes or hours as required in order to determine the exchange kinetics.
(§5) After 30 minutes the reaction vessel was transferred to ice. After a further 10 minutes at ice temperature the exchange reaction was initiated by addition of 100 μl 1 mM Structure A, with thorough mixing, and 150 μl was withdrawn and loaded onto a NAP5 column in a cold room at ˜5-8° C. in order to quantify the amount of radiolabel remaining bound to the protein at various time from the start of exchange at ice temperature.
(§6) Off rates (k1) of HPPD inhibitors that are not available radiolabelled or that present other measurement problems (for example high levels of background non-specific protein-binding which can be measured as radiolabel binding that persists in the presence of high concentrations of ‘cold’ inhibitor) may be measured indirectly. […] Exemplary methods are also described in PCT Patent App. Pub. No. WO 02/46387.

HPPD SEQ ID NO:14 = HPPD SEQ ID NO:14 (Avena sativa, UniProt A0ACD5V6K6, DEL109-109)
Procedure: as §1, §2, §3, §4, §5, §6

HPPD SEQ ID NO:19 = HPPD SEQ ID NO:19 (Avena sativa, UniProt A0ACD5V6K6, DEL109-109/I285A)
Procedure: as §1, §2, §3, §4, §5, §6

HPPD SEQ ID NO:15 = HPPD SEQ ID NO:15 (Avena sativa, UniProt A0ACD5V6K6, DEL109-109/Q298A)
Procedure: as §1, §2, §3, §4, §5, §6

HPPD SEQ ID NO:22 = HPPD SEQ ID NO:22 (Avena sativa, UniProt A0ACD5V6K6, DEL109-109/L256M)
Procedure: as §1, §2, §3, §4, §5, §6

HPPD SEQ ID NO:16 = HPPD SEQ ID NO:16 (Avena sativa, UniProt A0ACD5V6K6, DEL109-109/Q298G)
Procedure: as §1, §2, §3, §4, §5, §6

HPPD SEQ ID NO:21 = HPPD SEQ ID NO:21 (Avena sativa, UniProt A0ACD5V6K6, DEL109-109/I285V)
Procedure: as §1, §2, §3, §4, §5, §6

HPPD SEQ ID NO:23 = HPPD SEQ ID NO:23 (Avena sativa, UniProt A0ACD5V6K6, A242W/DEL109-109); details: read-out: kon (k2)
Procedure: as §1, §2, §3, §4, §5, §6

HPPD SEQ ID NO:17 = HPPD SEQ ID NO:17 (Avena sativa, UniProt A0ACD5V6K6, DEL109-109/Q298S)
Procedure: as §1, §2, §3, §4, §5, §6

HPPD SEQ ID NO:20 = HPPD SEQ ID NO:20 (Avena sativa, UniProt A0ACD5V6K6, DEL109-109/I285S)
Procedure: as §1, §2, §3, §4, §5, §6

HPPD SEQ ID NO:25 = HPPD SEQ ID NO:25 (Avena sativa, UniProt A0ACD5V6K6, DEL109-109/L359A)
Procedure: as §1, §2, §3, §4, §5, §6

HPPD SEQ ID NO:24 = HPPD SEQ ID NO:24 (Avena sativa, UniProt A0ACD5V6K6, DEL109-109/L359M)
Procedure: as §1, §2, §3, §4, §5, §6

HPPD SEQ ID NO:26 = HPPD SEQ ID NO:26 (Avena sativa, UniProt A0ACD5V6K6, DEL109-109/L256M/L359M); details: read-out: koff (k1)
Procedure: as §1
For example, on rates were measured by, at zero time, adding ˜60 pmoles HPPD to 50 mM BisTrisPropane buffer at pH7.0 and at 25° C. containing 25 mM Na ascorbate, 4 μg/ml bovine catalase (Sigma, St. Louis, Mo.) and an excess (˜300 pmoles) of ^14C inhibitor in a total assay volume of 425 μl and, at various time points (0-180 s), quenching the radiolabel binding reaction by addition and rapid mixing of 100 μl ‘cold’ 1 mM structure A. Protein samples quenched at different times were then exchanged into 50 mM BisTrisPropane buffer at pH 7.0 containing 0.1M KCl by rapid chromatography down a NAP5 G25 Sephadex column (GE Healthcare Ltd, Buckinghamshire UK) and the amount of ^14C bound to protein fractions quantified in Optiphase scintillant using a Tri-Carb 2900TR scintillation counter (Perkin Elmer, Wellesley, Mass.). The data were fit according to the scheme below in order to derive the value of the apparent second order rate constant, k2, governing the association rate of enzyme and radiolabelled inhibitor. […]

Sequence of HPPD SEQ ID NO:17 (A0ACD5V6K6 entry or part of it DEL109-109/Q298S): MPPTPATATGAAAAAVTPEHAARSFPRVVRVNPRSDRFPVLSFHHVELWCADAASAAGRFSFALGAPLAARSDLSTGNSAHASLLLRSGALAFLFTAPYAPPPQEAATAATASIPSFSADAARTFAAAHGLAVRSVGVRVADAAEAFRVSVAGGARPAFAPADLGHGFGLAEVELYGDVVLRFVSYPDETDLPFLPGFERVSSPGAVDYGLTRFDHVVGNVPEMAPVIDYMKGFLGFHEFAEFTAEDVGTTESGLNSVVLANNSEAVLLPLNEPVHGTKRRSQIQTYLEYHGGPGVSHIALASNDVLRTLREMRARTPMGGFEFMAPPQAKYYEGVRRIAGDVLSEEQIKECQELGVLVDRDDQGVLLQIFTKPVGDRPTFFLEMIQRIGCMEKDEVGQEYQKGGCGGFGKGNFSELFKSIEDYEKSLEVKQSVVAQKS
Sequence of HPPD SEQ ID NO:16 (A0ACD5V6K6 entry or part of it DEL109-109/Q298G): as the sequence (A0ACD5V6K6 entry or part of it DEL109-109/Q298S) above, with S297G counted along it
Sequence of HPPD SEQ ID NO:19 (A0ACD5V6K6 entry or part of it DEL109-109/I285A): as the sequence (A0ACD5V6K6 entry or part of it DEL109-109/Q298S) above, with I284A, S297Q counted along it
Sequence of HPPD SEQ ID NO:25 (A0ACD5V6K6 entry or part of it DEL109-109/L359A): as the sequence (A0ACD5V6K6 entry or part of it DEL109-109/Q298S) above, with S297Q, L358A counted along it
Sequence of HPPD SEQ ID NO:21 (A0ACD5V6K6 entry or part of it DEL109-109/I285V): as the sequence (A0ACD5V6K6 entry or part of it DEL109-109/Q298S) above, with I284V, S297Q counted along it
Sequence of HPPD SEQ ID NO:15 (A0ACD5V6K6 entry or part of it DEL109-109/Q298A): as the sequence (A0ACD5V6K6 entry or part of it DEL109-109/Q298S) above, with S297A counted along it
Sequence of HPPD SEQ ID NO:24 (A0ACD5V6K6 entry or part of it DEL109-109/L359M): as the sequence (A0ACD5V6K6 entry or part of it DEL109-109/Q298S) above, with S297Q, L358M counted along it
Sequence of HPPD SEQ ID NO:14 (A0ACD5V6K6 entry or part of it DEL109-109): as the sequence (A0ACD5V6K6 entry or part of it DEL109-109/Q298S) above, with S297Q counted along it
Sequence of HPPD SEQ ID NO:20 (A0ACD5V6K6 entry or part of it DEL109-109/I285S): as the sequence (A0ACD5V6K6 entry or part of it DEL109-109/Q298S) above, with I284S, S297Q counted along it
Sequence of HPPD SEQ ID NO:22 (A0ACD5V6K6 entry or part of it DEL109-109/L256M): as the sequence (A0ACD5V6K6 entry or part of it DEL109-109/Q298S) above, with L255M, S297Q counted along it
Sequence of HPPD SEQ ID NO:18 (A0ACD5V6K6 entry or part of it DEL109-109/I285T): as the sequence (A0ACD5V6K6 entry or part of it DEL109-109/Q298S) above, with I284T, S297Q counted along it
Sequence of HPPD SEQ ID NO:23 (A0ACD5V6K6 entry or part of it DEL109-109/A242W): as the sequence (A0ACD5V6K6 entry or part of it DEL109-109/Q298S) above, with A241W, S297Q counted along it
Sequence of HPPD SEQ ID NO:26 (A0ACD5V6K6 entry or part of it DEL109-109/L256M/L359M): as the sequence (A0ACD5V6K6 entry or part of it DEL109-109/Q298S) above, with L255M, S297Q, L358M counted along it

`COCCOCc1nc(C(F)(F)F)ccc1C(=O)C1C(=O)C2CCC(C2)C1=O` (stereo not drawn) [Structure C] gave a Kd (HPPD SEQ ID NO:18) of 11.9 nM, a koff (HPPD SEQ ID NO:18; read-out: koff (k1)) of 9e-05 s⁻¹ and a kon (HPPD SEQ ID NO:18; read-out: kon (k2)) of 7500 M⁻¹ s⁻¹. For the same compound, the “On rate, activity-based method” value (HPPD SEQ ID NO:14; 25° C., enzyme activity-based method) was 7800 M⁻¹ s⁻¹ and 7600 M⁻¹ s⁻¹ and 7200 M⁻¹ s⁻¹ and 10000 M⁻¹ s⁻¹, the kon (HPPD SEQ ID NO:14; 25° C., enzyme activity-based method, read-out: On rate, activity-based method) was 7500 M⁻¹ s⁻¹ and the Kd/Km ratio (HPPD SEQ ID NO:14; HPPD SEQ ID NO:14) was 0.0017. The Kd (HPPD SEQ ID NO:14; Kd, estimated from on and off rates, 25° C.) was 9.4 nM, the koff (HPPD SEQ ID NO:14; read-out: koff (k1)) was 7.04e-05 s⁻¹ and the kon (HPPD SEQ ID NO:14; read-out: kon (k2)) was 7500 M⁻¹ s⁻¹. It also gave a Kd (HPPD SEQ ID NO:19) of 8.9 nM, a koff (HPPD SEQ ID NO:19; read-out: koff (k1)) of 6.6e-05 s⁻¹ and a kon (HPPD SEQ ID NO:19; read-out: kon (k2)) of 7500 M⁻¹ s⁻¹. For the same compound, the Kd (HPPD SEQ ID NO:15) was 17.7 nM, the koff (HPPD SEQ ID NO:15; read-out: koff (k1)) was 0.000113 s⁻¹ and the kon (HPPD SEQ ID NO:15; read-out: kon (k2)) was 7500 M⁻¹ s⁻¹. It also gave a Kd (HPPD SEQ ID NO:22) of 23.9 nM, a koff (HPPD SEQ ID NO:22; read-out: koff (k1)) of 9e-05 s⁻¹ and a kon (HPPD SEQ ID NO:22; read-out: kon (k2)) of 4400 M⁻¹ s⁻¹. The Kd (HPPD SEQ ID NO:16) was 26.7 nM, the koff (HPPD SEQ ID NO:16; read-out: koff (k1)) was 0.00012 s⁻¹ and the kon (HPPD SEQ ID NO:16; read-out: kon (k2)) was 4500 M⁻¹ s⁻¹. The Kd (HPPD SEQ ID NO:21) was 11.9 nM, the koff (HPPD SEQ ID NO:21; read-out: koff (k1)) was 9e-05 s⁻¹ and the kon (HPPD SEQ ID NO:21; read-out: kon (k2)) was 7500 M⁻¹ s⁻¹. It also gave a kon (HPPD SEQ ID NO:23) of 7500 M⁻¹ s⁻¹, a Kd (HPPD SEQ ID NO:17) of 7.1 nM and a koff (HPPD SEQ ID NO:17; read-out: koff (k1)) of 6.65e-05 s⁻¹. The kon (HPPD SEQ ID NO:17; read-out: kon (k2)) was 9400 M⁻¹ s⁻¹, the Kd (HPPD SEQ ID NO:20) was 6.6 nM and the koff (HPPD SEQ ID NO:20; read-out: koff (k1)) was 6.6e-05 s⁻¹. For the same compound, the kon (HPPD SEQ ID NO:20; read-out: kon (k2)) was 10100 M⁻¹ s⁻¹, the Kd (HPPD SEQ ID NO:25) was 23 nM and the koff (HPPD SEQ ID NO:25; read-out: koff (k1)) was 0.000113 s⁻¹. The kon (HPPD SEQ ID NO:25; read-out: kon (k2)) was 4800 M⁻¹ s⁻¹, the Kd (HPPD SEQ ID NO:24) was 16 nM and the “SEQ ID NO:24 superior to SEQ ID NO:14 (in vitro, in particular off rate data)” value (HPPD SEQ ID NO:24) was “neutral”. It also gave a koff (HPPD SEQ ID NO:24; read-out: koff (k1)) of 7.82e-05 s⁻¹, a kon (HPPD SEQ ID NO:24; read-out: kon (k2)) of 4900 M⁻¹ s⁻¹ and a koff (HPPD SEQ ID NO:26) of 9e-05 s⁻¹.
